Results published in ChEMBL document CHEMBL3885881, “DrugMatrix”.

Species on record: Rattus norvegicus
Assay: DrugMatrix - Regimen: Daily Repeat
Format: toxicity, organism-based, Sprague-Dawley
Design: regimen Daily Repeat, gender Male, age 6-8 weeks
Details: in vivo, po, route oral GAVAGE, vehicle .5 % CMC; for TOTAL PROTEIN / ALANINE AMINOTRANSFERASE / ALBUMIN / ALKALINE PHOSPHATASE / ASPARTATE AMINOTRANSFERASE / BLOOD UREA NITROGEN / CARBON DIOXIDE / CHLORIDE / CHOLESTEROL / CREATINE PHOSPHOKINASE / CREATININE / GLUCOSE / LACTATE DEHYDROGENASE / LIPASE / POTASSIUM / SODIUM / TOTAL BILIRUBIN: tissue Plasma; for ABSOLUTE BASOPHIL / ABSOLUTE EOSINOPHIL / ABSOLUTE LYMPHOCYTE / ABSOLUTE MONOCYTE / ABSOLUTE SEGMENTED NEUTROPHIL / BASOPHIL / EOSINOPHIL / ERYTHROCYTE COUNT / HEMATOCRIT / HEMOGLOBIN / LEUKOCYTE COUNT / LYMPHOCYTE / MEAN CORPUSCULAR HEMOGLOBIN / MEAN CORPUSCULAR HEMOGLOBIN CONCENTRATION / MEAN CORPUSCULAR VOLUME / MONOCYTE / NEUTROPHIL / NUCLEATED RED BLOOD CELLS / PLATELET COUNT: tissue Blood
[1] = 150 mg/kg, 120 h, dose level Low, time 5 day
[2] = 2000 mg/kg, 72 h, dose level High, time 3 day
[3] = 2000 mg/kg, 120 h, dose level High, time 5 day

C[C@@H]1CC[C@H]2[C@@H](C)C(=O)O[C@@H]3O[C@@]4(C)CC[C@@H]1[C@]32OO4 [ARTEMISININ]
TOTAL PROTEIN (150 mg/kg, 72 h, dose level Low, time 3 day): 6.7 G/DL | ABSOLUTE BASOPHIL [1]: 0 CELLS/uL | ABSOLUTE EOSINOPHIL [1]: 0 CELLS/uL | ABSOLUTE LYMPHOCYTE [1]: 11615.67 CELLS/uL | ABSOLUTE MONOCYTE [1]: 298.33 CELLS/uL | ABSOLUTE SEGMENTED NEUTROPHIL [1]: 986 CELLS/uL | BASOPHIL [1]: 0% | EOSINOPHIL [1]: 0% | ERYTHROCYTE COUNT [1]: 5.22 x10E6/uL | HEMATOCRIT [1]: 33.07% | HEMOGLOBIN [1]: 12.77 G/DL | LEUKOCYTE COUNT [1]: 12.9 x10E3/uL | LYMPHOCYTE [1]: 90% | MEAN CORPUSCULAR HEMOGLOBIN [1]: 24.43 pg | MEAN CORPUSCULAR HEMOGLOBIN CONCENTRATION [1]: 38.63 G/DL | MEAN CORPUSCULAR VOLUME [1]: 63.33 fL | MONOCYTE [1]: 2.33% | NEUTROPHIL [1]: 7.67% | NUCLEATED RED BLOOD CELLS [1]: 0 /100WBC | PLATELET COUNT [1]: 1315 x10E3/uL | ALANINE AMINOTRANSFERASE [1]: 48.67 u/L | ALBUMIN [1]: 3.93 G/DL | ALKALINE PHOSPHATASE [1]: 408.33 u/L | ASPARTATE AMINOTRANSFERASE [1]: 87.67 u/L | BLOOD UREA NITROGEN [1]: 18 mg/dL | CARBON DIOXIDE [1]: 27 mmol/L | CHLORIDE [1]: 101 MEQ/L | CHOLESTEROL [1]: 71.67 mg/dL | CREATINE PHOSPHOKINASE [1]: 464 u/L | CREATININE [1]: 0.19 mg/dL | GLUCOSE [1]: 139.33 mg/dL | LACTATE DEHYDROGENASE [1]: 476 u/L | LIPASE [1]: 10 u/L | POTASSIUM [1]: 6.65 MEQ/L | SODIUM [1]: 141.93 MEQ/L | TOTAL BILIRUBIN [1]: 0.2 mg/dL | TOTAL PROTEIN [1]: 5.93 G/DL | ABSOLUTE BASOPHIL [2]: 0 CELLS/uL | ABSOLUTE EOSINOPHIL [2]: 274 CELLS/uL | ABSOLUTE LYMPHOCYTE [2]: 15228 CELLS/uL | ABSOLUTE MONOCYTE [2]: 318.67 CELLS/uL | BASOPHIL [2]: 0% | EOSINOPHIL [2]: 1.67% | ERYTHROCYTE COUNT [2]: 5.42 x10E6/uL | HEMATOCRIT [2]: 33.43% | HEMOGLOBIN [2]: 13.03 G/DL | LEUKOCYTE COUNT [2]: 16.97 x10E3/uL | LYMPHOCYTE [2]: 89% | MEAN CORPUSCULAR HEMOGLOBIN [2]: 24.07 pg | MEAN CORPUSCULAR HEMOGLOBIN CONCENTRATION [2]: 39 G/DL | MEAN CORPUSCULAR VOLUME [2]: 61.67 fL | MONOCYTE [2]: 2% | NEUTROPHIL [2]: 7.33% | NUCLEATED RED BLOOD CELLS [2]: 0 /100WBC | PLATELET COUNT [2]: 1460 x10E3/uL | ALANINE AMINOTRANSFERASE [2]: 59.67 u/L | ALBUMIN [2]: 4 G/DL | ALKALINE PHOSPHATASE [2]: 390 u/L | ASPARTATE AMINOTRANSFERASE [2]: 112.33 u/L | BLOOD UREA NITROGEN [2]: 19.67 mg/dL | CARBON DIOXIDE [2]: 23.67 mmol/L | CHLORIDE [2]: 101.67 MEQ/L | CHOLESTEROL [2]: 97.67 mg/dL | CREATINE PHOSPHOKINASE [2]: 581.33 u/L | CREATININE [2]: 0.25 mg/dL | GLUCOSE [2]: 144.33 mg/dL | LACTATE DEHYDROGENASE [2]: 387.67 u/L | LIPASE [2]: 12.33 u/L | POTASSIUM [2]: 6.36 MEQ/L | SODIUM [2]: 142.67 MEQ/L | TOTAL BILIRUBIN [2]: 0.2 mg/dL | TOTAL PROTEIN [2]: 6 G/DL | ABSOLUTE BASOPHIL [3]: 0 CELLS/uL | ABSOLUTE EOSINOPHIL [3]: 156.67 CELLS/uL | ABSOLUTE LYMPHOCYTE [3]: 13145.33 CELLS/uL | ABSOLUTE MONOCYTE [3]: 96 CELLS/uL | ABSOLUTE SEGMENTED NEUTROPHIL [3]: 868.67 CELLS/uL | BASOPHIL [3]: 0% | EOSINOPHIL [3]: 1% | ERYTHROCYTE COUNT [3]: 5.52 x10E6/uL | HEMATOCRIT [3]: 33.57% | HEMOGLOBIN [3]: 13.27 G/DL | LEUKOCYTE COUNT [3]: 14.27 x10E3/uL | LYMPHOCYTE [3]: 92% | MEAN CORPUSCULAR HEMOGLOBIN [3]: 24.07 pg | MEAN CORPUSCULAR HEMOGLOBIN CONCENTRATION [3]: 39.53 G/DL | MEAN CORPUSCULAR VOLUME [3]: 60.87 fL | MONOCYTE [3]: 0.67% | NEUTROPHIL [3]: 6.33% | NUCLEATED RED BLOOD CELLS [3]: 0.33 /100WBC | PLATELET COUNT [3]: 1230 x10E3/uL | ALANINE AMINOTRANSFERASE [3]: 52.67 u/L | ALBUMIN [3]: 4.1 G/DL | ALKALINE PHOSPHATASE [3]: 299.67 u/L | ASPARTATE AMINOTRANSFERASE [3]: 83.33 u/L | BLOOD UREA NITROGEN [3]: 19.33 mg/dL | CARBON DIOXIDE [3]: 28.67 mmol/L | CHLORIDE [3]: 104 MEQ/L | CHOLESTEROL [3]: 75.33 mg/dL | CREATINE PHOSPHOKINASE [3]: 308.33 u/L | CREATININE [3]: 0.23 mg/dL | GLUCOSE [3]: 133 mg/dL | LACTATE DEHYDROGENASE [3]: 153.67 u/L | LIPASE [3]: 10.33 u/L | POTASSIUM [3]: 6.54 MEQ/L | SODIUM [3]: 147.4 MEQ/L | TOTAL BILIRUBIN [3]: 0.17 mg/dL | TOTAL PROTEIN [3]: 6.1 G/DL
